Assays:
[1] = tested on: Streptococcus pneumoniae, strain ATCC 49619; assay: Agar Dilution Test (NCCLS), Streptococcus pneumoniae; assay type: cell-based; details: Example 139 tested in form of the trihydrochloride
Excerpt: In particular, the active compounds of the invention show antimicrobial, e.g. antibacterial, activity against gram negative and gram positive bacteria such as Pseudomonas, e.g. Pseudomonas aeruginosa, Pseudomonas fluorescens; Enterobacter, e.g. Enterobacter cloacae; Enterococcus, e.g. Enterococcus faecalis; Moraxella, e.g. Moraxella catarrhalis; Haemophilus, e.g. Haemophilus influenza; Klebsiella, e.g. Klebsiella edwardsii, Klebsiella pneumoniae; Streptococcus, e.g. Streptococcus pneumoniae, Streptococcus durans, Streptococcus faecium, Streptococcus pyogenes; Staphylococcus, e.g. Staphylococcus aureus, Staphylococcus pyogenes; Escherichia, e.g. Escherichia coli; and Proteus, e.g. Proteus mirabilis in vitro in the Agar Dilution Test according to National Commitee for Clinical Laboratory Standards (NCCLS) 1993, Document M7-A3Vol.13, No. 25: “Methods for dilution Antimicrobial Susceptibility Tests for Bacteria that Grow Aerobically—Third Edition, Approved Standard” and in vivo in the septikaemic mouse model. The active compounds of the invention show activity in the mouse when administerd at dosages from about 0.05 to 50 mg/kg body weight (ED50 values).The active compounds show an MHK(μg/ml) in the Agar Dilution Test from about 0.005 to ca. 50. The active compounds of the invention show an surprising overall activity spectrum.

[2] = tested on: Pseudomonas aeruginosa strain 27853; assay: Agar Dilution Test (NCCLS), Pseudomonas aeruginosa; assay type: cell-based
Excerpt: In particular, the active compounds of the invention show antimicrobial, e.g. antibacterial, activity against gram negative and gram positive bacteria such as Pseudomonas, e.g. Pseudomonas aeruginosa, Pseudomonas fluorescens; Enterobacter, e.g. Enterobacter cloacae; Enterococcus, e.g. Enterococcus faecalis; Moraxella, e.g. Moraxella catarrhalis; Haemophilus, e.g. Haemophilus influenza; Klebsiella, e.g. Klebsiella edwardsii, Klebsiella pneumoniae; Streptococcus, e.g. Streptococcus pneumoniae, Streptococcus durans, Streptococcus faecium, Streptococcus pyogenes; Staphylococcus, e.g. Staphylococcus aureus, Staphylococcus pyogenes; Escherichia, e.g. Escherichia coli; and Proteus, e.g. Proteus mirabilis in vitro in the Agar Dilution Test according to National Commitee for Clinical Laboratory Standards (NCCLS) 1993, Document M7-A3Vol.13, No. 25: “Methods for dilution Antimicrobial Susceptibility Tests for Bacteria that Grow Aerobically—Third Edition, Approved Standard” and in vivo in the septikaemic mouse model. […]
It has, for example, been determined that the MHK (μg/ml) of the compound of Example 139 against, for example Enterococcus faecalis strains ATTC 29212 or ATCC 51299, is of ca. 0.08 to 0.25; ainst Staphylococcus aureus strains ATCC 29213 or ATCC 9144 is of ca. 0.2 to 0.4 and against Pseudomonas aeruginosa strain 27853 is ca. 0.8.

Compound | MHK [1] | MHK [2]
CO/N=C(\C(=O)N[C@@H]1C(=O)N2C(C(=O)O)=C(CSc3nc(=O)c(=O)[nH]n3C)CS[C@H]12)c1csc(N)n1 [ceftriaxone, reference compound] | ca. 0.02 μg/ml | 
7-[[(5-Amino-1,2,4-thiadiazol-3-yl)-(Z)-(fluormethoxyimino)acetyl]amino]-3-[[(piperazinoiminomethyl)hydrazono]methyl]-3-cephem-4-carboxylic acid [Example 139] | ca. 0.01 μg/ml | ca. 0.8 μg/ml

Source: patent publication US6531465B1 (priority 1995, dated 2003)
